Assay results taken from patent US20230398130A1, “METHODS AND COMPOSITIONS FOR DIFFERENTIATING STEM CELLS” (Massachusetts Institute of Technology, priority 2020, published 2023).

Columns and labels:
ISC-enriched organoids [1] = test: Primary screen, 384-well 2.5-D organoid differentiation (ENR+CD, 6 days): carbachol-induced lysozyme secretion (LYZ.S); type: cell-based, murine; settings: for Dose.FC.LYZ.S: FC vs plate median; for Z.LYZ.S: standard z score; for SSMD.LYZ.S: strictly standardized mean difference; for Dose.FC.LYZ.S (log 2 fold change, carbachol-induced lysozyme secretion): vs plate median
Description: (§1) High-throughput screening.

ISC-enriched organoids [2] = test: Primary screen, 384-well 2.5-D organoid differentiation (ENR+CD, 6 days, Target Selective Inhibitor Library, vs whole-plate median): ATP (CellTiter-Glo 3D, CTG); settings: for Dose.FC.CTG: FC vs plate median; for SSMD.CTG: strictly standardized mean difference; for Dose.FC.CTG (log 2 fold change, ATP): vs plate median
ISC-enriched organoids [3] = test: Primary screen, 384-well 2.5-D organoid differentiation (ENR+CD, 6 days): basal lysozyme secretion (LYZ.NS); type: cell-based, murine; settings: for Dose.FC.LYZ.NS: FC vs plate median; for SSMD.LYZ.NS: strictly standardized mean difference; for Dose.FC.LYZ.NS (log 2 fold change, basal lysozyme secretion): vs plate median
Description: as §1

[4] = primary screen, 1st of the 4 dose lines of the treatment (dose not given)
[5] = primary screen, 2nd of the 4 dose lines of the treatment (dose not given)
[6] = primary screen, 3rd of the 4 dose lines of the treatment (dose not given)
[7] = primary screen, 4th of the 4 dose lines of the treatment (dose not given)
[8] = Dose 0.08 uM, primary screen, standard z score
[9] = Dose 0.40 uM, primary screen, standard z score
[10] = Dose 2.00 uM, primary screen, standard z score
[11] = Dose 10.00 uM, primary screen, standard z score
[12] = Dose 0.08 uM, standard z score of FC
[13] = Dose 0.40 uM, standard z score of FC
[14] = Dose 2.00 uM, standard z score of FC
[15] = Dose 10.00 uM, standard z score of FC

Nc1cccc2c1CN(C1CCC(=O)NC1=O)C2=O (stereo not drawn) [Lenalidomide (CC-5013)]
Dose.FC.LYZ.S (ISC-enriched organoids [1]; Dose 0.08 uM, primary screen): 0.099 log 2 fold change
Dose.FC.LYZ.S (ISC-enriched organoids [1]; Dose 0.40 uM, primary screen): 0.176 log 2 fold change
Dose.FC.LYZ.S (ISC-enriched organoids [1]; Dose 2.00 uM, primary screen): 0.025 log 2 fold change
Dose.FC.LYZ.S (ISC-enriched organoids [1]; Dose 10.00 uM, primary screen): −0.045 log 2 fold change
Z.LYZ.S (ISC-enriched organoids [1]; [4]): 0.639
Z.LYZ.S (ISC-enriched organoids [1]; [5]): 1.137
Z.LYZ.S (ISC-enriched organoids [1]; [6]): 0.162
Z.LYZ.S (ISC-enriched organoids [1]; [7]): −0.290
SSMD.LYZ.S (ISC-enriched organoids [1]; [4]): 0.593
SSMD.LYZ.S (ISC-enriched organoids [1]; [5]): 0.873
SSMD.LYZ.S (ISC-enriched organoids [1]; [6]): 0.193
SSMD.LYZ.S (ISC-enriched organoids [1]; [7]): −0.298
Dose.FC.CTG (ISC-enriched organoids [2]; Dose 0.08 uM, primary screen): 0.046 log 2 fold change
Z.CTG (ISC-enriched organoids [2]; [8]): 0.110
Dose.FC.CTG (ISC-enriched organoids [2]; Dose 0.40 uM, primary screen): −0.016 log 2 fold change
Z.CTG (ISC-enriched organoids [2]; [9]): −0.037
Dose.FC.CTG (ISC-enriched organoids [2]; Dose 2.00 uM, primary screen): −0.250 log 2 fold change
Z.CTG (ISC-enriched organoids [2]; [10]): −0.596
Dose.FC.CTG (ISC-enriched organoids [2]; Dose 10.00 uM, primary screen): −0.316 log 2 fold change
Z.CTG (ISC-enriched organoids [2]; [11]): −0.754
SSMD.CTG (ISC-enriched organoids [2]; [4]): 0.169
SSMD.CTG (ISC-enriched organoids [2]; [5]): −0.049
SSMD.CTG (ISC-enriched organoids [2]; [6]): −0.710
SSMD.CTG (ISC-enriched organoids [2]; [7]): −0.802
Dose.FC.LYZ.NS (ISC-enriched organoids [3]; Dose 0.08 uM, primary screen): 0.147 log 2 fold change
Z.LYZ.NS (ISC-enriched organoids [3]; [8]): 1.283
Dose.FC.LYZ.NS (ISC-enriched organoids [3]; Dose 0.40 uM, primary screen): 0.099 log 2 fold change
Z.LYZ.NS (ISC-enriched organoids [3]; [9]): 0.863
Dose.FC.LYZ.NS (ISC-enriched organoids [3]; Dose 2.00 uM, primary screen): 0.071 log 2 fold change
Z.LYZ.NS (ISC-enriched organoids [3]; [10]): 0.615
Dose.FC.LYZ.NS (ISC-enriched organoids [3]; Dose 10.00 uM, primary screen): −0.041 log 2 fold change
Z.LYZ.NS (ISC-enriched organoids [3]; [11]): −0.360
SSMD.LYZ.NS (ISC-enriched organoids [3]; [4]): 1.215
SSMD.LYZ.NS (ISC-enriched organoids [3]; [5]): 0.674
SSMD.LYZ.NS (ISC-enriched organoids [3]; [6]): 0.472
SSMD.LYZ.NS (ISC-enriched organoids [3]; [7]): −0.318

CC(C)C[C@H](NC(=O)CNC(=O)c1cc(Cl)ccc1Cl)B(O)O [MLN2238]
Z.LYZ.S (ISC-enriched organoids [1]; [4]): −2.478
Z.LYZ.S (ISC-enriched organoids [1]; [5]): −2.317
Z.LYZ.S (ISC-enriched organoids [1]; [6]): −2.280
Z.LYZ.S (ISC-enriched organoids [1]; [7]): −2.394
SSMD.LYZ.S (ISC-enriched organoids [1]; [4]): −1.588
SSMD.LYZ.S (ISC-enriched organoids [1]; [5]): −1.620
SSMD.LYZ.S (ISC-enriched organoids [1]; [6]): −1.733
SSMD.LYZ.S (ISC-enriched organoids [1]; [7]): −1.739
Z.CTG (ISC-enriched organoids [2]; [12]): −3.952
Z.CTG (ISC-enriched organoids [2]; [13]): −2.637
Z.CTG (ISC-enriched organoids [2]; [14]): −2.944
Z.CTG (ISC-enriched organoids [2]; [15]): −4.205
SSMD.CTG (ISC-enriched organoids [2]; [4]): −2.218
SSMD.CTG (ISC-enriched organoids [2]; [5]): −0.972
SSMD.CTG (ISC-enriched organoids [2]; [6]): −1.669
SSMD.CTG (ISC-enriched organoids [2]; [7]): −1.891
SSMD.LYZ.NS (ISC-enriched organoids [3]; [4]): −1.766
SSMD.LYZ.NS (ISC-enriched organoids [3]; [5]): −1.837
SSMD.LYZ.NS (ISC-enriched organoids [3]; [6]): −1.787
SSMD.LYZ.NS (ISC-enriched organoids [3]; [7]): −2.223

CN[C@@H](C)C(=O)N[C@H](C(=O)N1CCC[C@H]1C(=O)Nc1snnc1-c1ccccc1)C1CCCCC1 [GDC-0152]
Dose.FC.LYZ.S (ISC-enriched organoids [1]; Dose 0.08 uM, ENR+CD, 6 days): −0.020 log 2 fold change
Dose.FC.LYZ.S (ISC-enriched organoids [1]; Dose 0.40 uM, ENR+CD, 6 days): −0.036 log 2 fold change
Dose.FC.LYZ.S (ISC-enriched organoids [1]; Dose 2.00 uM, ENR+CD, 6 days): −0.057 log 2 fold change
Dose.FC.LYZ.S (ISC-enriched organoids [1]; Dose 10.00 uM, ENR+CD, 6 days): −0.009 log 2 fold change
Dose.FC.CTG (ISC-enriched organoids [2]; Dose 0.08 uM, ENR+CD, 6 days): 0.151 log 2 fold change
Z.CTG (ISC-enriched organoids [2]; [12]): 0.361
Dose.FC.CTG (ISC-enriched organoids [2]; Dose 0.40 uM, ENR+CD, 6 days): 0.158 log 2 fold change
Z.CTG (ISC-enriched organoids [2]; [13]): 0.377
Dose.FC.CTG (ISC-enriched organoids [2]; Dose 2.00 uM, ENR+CD, 6 days): 0.003 log 2 fold change
Z.CTG (ISC-enriched organoids [2]; [14]): 0.008
Dose.FC.CTG (ISC-enriched organoids [2]; Dose 10.00 uM, ENR+CD, 6 days): 0.241 log 2 fold change
Z.CTG (ISC-enriched organoids [2]; [15]): 0.575
Dose.FC.LYZ.NS (ISC-enriched organoids [3]; Dose 0.08 uM, ENR+CD, 6 days): −0.002 log 2 fold change
Z.LYZ.NS (ISC-enriched organoids [3]; [12]): −0.013
Dose.FC.LYZ.NS (ISC-enriched organoids [3]; Dose 0.40 uM, ENR+CD, 6 days): −0.020 log 2 fold change
Z.LYZ.NS (ISC-enriched organoids [3]; [13]): −0.176
Dose.FC.LYZ.NS (ISC-enriched organoids [3]; Dose 2.00 uM, ENR+CD, 6 days): 0.083 log 2 fold change
Z.LYZ.NS (ISC-enriched organoids [3]; [14]): 0.724
Dose.FC.LYZ.NS (ISC-enriched organoids [3]; Dose 10.00 uM, ENR+CD, 6 days): 0.103 log 2 fold change
Z.LYZ.NS (ISC-enriched organoids [3]; [15]): 0.900

Cc1ccc(NC(=O)C2(c3ccc4c(c3)OC(F)(F)O4)CC2)nc1-c1cccc(C(=O)O)c1 [VX-809 (Lumacaftor)]
Dose.FC.LYZ.S (log 2 fold change, carbachol-induced lysozyme secretion) (ISC-enriched organoids [1]; dose 0.08 uM): 0.218
Dose.FC.LYZ.S (log 2 fold change, carbachol-induced lysozyme secretion) (ISC-enriched organoids [1]; dose 0.40 uM): −0.027
Dose.FC.LYZ.S (log 2 fold change, carbachol-induced lysozyme secretion) (ISC-enriched organoids [1]; dose 2.00 uM): −0.073
Dose.FC.LYZ.S (log 2 fold change, carbachol-induced lysozyme secretion) (ISC-enriched organoids [1]; dose 10.00 uM): −0.117
Z.CTG (standard z score) (ISC-enriched organoids [2]; dose 0.08 uM): 0.423
Dose.FC.CTG (log 2 fold change, ATP) (ISC-enriched organoids [2]; dose 0.08 uM): 0.177
Z.CTG (standard z score) (ISC-enriched organoids [2]; dose 0.40 uM): −0.149
Dose.FC.CTG (log 2 fold change, ATP) (ISC-enriched organoids [2]; dose 0.40 uM): −0.062
Z.CTG (standard z score) (ISC-enriched organoids [2]; dose 2.00 uM): −0.346
Dose.FC.CTG (log 2 fold change, ATP) (ISC-enriched organoids [2]; dose 2.00 uM): −0.145
Z.CTG (standard z score) (ISC-enriched organoids [2]; dose 10.00 uM): 0.076
Dose.FC.CTG (log 2 fold change, ATP) (ISC-enriched organoids [2]; dose 10.00 uM): 0.032
Z.LYZ.NS (standard z score) (ISC-enriched organoids [3]; dose 0.08 uM): 0.634
Dose.FC.LYZ.NS (log 2 fold change, basal lysozyme secretion) (ISC-enriched organoids [3]; dose 0.08 uM): 0.073
Z.LYZ.NS (standard z score) (ISC-enriched organoids [3]; dose 0.40 uM): −0.353
Dose.FC.LYZ.NS (log 2 fold change, basal lysozyme secretion) (ISC-enriched organoids [3]; dose 0.40 uM): −0.041
Z.LYZ.NS (standard z score) (ISC-enriched organoids [3]; dose 2.00 uM): −0.279
Dose.FC.LYZ.NS (log 2 fold change, basal lysozyme secretion) (ISC-enriched organoids [3]; dose 2.00 uM): −0.032
Z.LYZ.NS (standard z score) (ISC-enriched organoids [3]; dose 10.00 uM): −0.713
Dose.FC.LYZ.NS (log 2 fold change, basal lysozyme secretion) (ISC-enriched organoids [3]; dose 10.00 uM): −0.082
